In US8202856B2 (Merck Serono SA, priority 2007, dated 2012) one finds EC50 data, which are given here for 28 compounds.

Each structure is given as a SMILES string.

In the experiment the target is S1P1 receptor (Homo sapiens, UniProt P21453). The experiment can be described thus: 35S-GTPγS binding, membranes from CHO cells expressing S1P1. The format is biochemical. Conditions: CHO cell membranes expressing S1P1. As to the method: Receptor binding assay: Membranes were prepared from CHO cells expressing S1P1 or S1P3 for use in ligand and 35S-GTPTS binding studies. Cells were suspended in 50 mM TRIS, pH 7.4, 2 mM EDTA, 250 mM Sucrose (buffer A) and 1× Complete protease inhibitor cocktail (Roche), and disrupted at 4° C. by nitrogen decompression using a cell disruption bomb (Parr Instrument). Following centrifugation at 1000 RPM for 10 min at 4° C., the supernatant was suspended in buffer A and centrifuged again at 19000 RPM for 60 min at 4° C. The pellet was then suspended in 10 mM HEPES, pH 7.4, 1 mM EDTA, 250 mM Sucrose (Buffer B), and 1× Complete EDTA-free protease inhibitor cocktail and homogenized using a potter. Membranes were flash frozen in liquid nitrogen and stored at −80° C. [33P]sphingosine 1-phosphate (3000 Ci/mmol; American Radiolabeled Chemicals, Inc.) was added to test compounds in DMSO. Membranes and WGA SPA beads (GE Healthcare) were added to give a final volume of 100 μl in 96-well plates with assay concentrations of […] [33P]sphingosine 1-phosphate (respectively for S1P1 or S1P3), 50 mM HEPES, pH 7.5, 5 mM MgCl2, 100 mM NaCl, 0.4% fatty acid-free BSA, 1-5 μg/well of proteins and 100 μg/well of WGA SPA beads. Binding was performed for 60 min at room temperature on a shaker and bound radioactivity was measured on a PerkinElmer 1450 MicroBeta counter. Specific binding was calculated by subtracting remaining radioactivity in the presence of 1000-fold excess of unlabeled S1P. Binding data were analyzed using the GraphPad Prism program.
Sequence of S1P1 receptor (P21453 whole entry): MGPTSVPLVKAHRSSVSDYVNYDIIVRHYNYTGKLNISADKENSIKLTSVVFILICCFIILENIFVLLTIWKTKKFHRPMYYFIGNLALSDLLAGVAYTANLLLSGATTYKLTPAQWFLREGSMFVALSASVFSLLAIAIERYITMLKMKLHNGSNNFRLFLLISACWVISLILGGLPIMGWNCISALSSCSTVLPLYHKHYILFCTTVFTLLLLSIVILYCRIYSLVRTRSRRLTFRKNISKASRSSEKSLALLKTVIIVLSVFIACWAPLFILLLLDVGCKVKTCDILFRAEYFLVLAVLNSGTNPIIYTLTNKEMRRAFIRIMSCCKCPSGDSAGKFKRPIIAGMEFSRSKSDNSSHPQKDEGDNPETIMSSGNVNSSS
Measurements of ^35S-GTPγS Binding: Membranes (1 to 10 μg protein) prepared as described above, were incubated in 96-well Scintiplates (PerkinElmer) with test compounds diluted in DMSO, in 180 μl of 20 mM HEPES, pH 7.4, 10 mM MgCl2, 2 μg/well Saponin, 0.2% fatty acid free BSA (Assay buffer), 140 mM NaCl and 1.7 μM GDP. The assay was initiated with the addition of 20 μl of 1.5 nM [35S]-GTPγS (1100 Ci/mmol; GE Healthcare) in assay buffer. After 60 min incubation at 30° C. on a shaker, plates were centrifuged for 10 min at 2000 RPM. Supernatant was discarded and membrane bound radioactivity was measured on a PerkinElmer 1450 MicroBeta counter. Triplicate samples were averaged and expressed as response relative to S1P activation in absence of compound (n=2).
Regarding `Fc1ccccc1-n1nnc(-c2nc(-c3cccnc3)no2)c1C1CCCC1` [Example 79, 3-{5-[5-cyclopentyl-1-(2-fluorophenyl)-1H-1,2,3-triazol-4-yl]-1,2,4-oxadiazol-3-yl}pyridine], the EC50 turned out to be 0.23 µM.
Compound `COCc1c(-c2nc(-c3ccc(CN)cc3)no2)nnn1-c1ccccc1F` [Example 81, 1-(4-{5-[1-(2-fluorophenyl)-5-(methoxymethyl)-1H-1,2,3-triazol-4-yl]-1,2,4-oxadiazol-3-yl}phenyl)methanamine] had an EC50 of 0.236 µM.
Under `Fc1ccccc1-n1nnc(-c2nc(-c3cccc(Cn4ccnc4)c3)no2)c1-c1ccncc1` [Example 82, 4-(1-(2-fluorophenyl)-4-{3-[3-(1H-imidazol-1-ylmethyl)phenyl]-1,2,4-oxadiazol-5-yl}-1H-1,2,3-triazol-5-yl)pyridine] stands 0.176 µM; under `CS(=O)(=O)c1cccc(-c2noc(-c3nnn(-c4ccccc4F)c3-c3ccccn3)n2)c1` [Example 84, 2-(1-(2-fluorophenyl)-4-{3-[3-(methylsulfonyl)phenyl]-1,2,4-oxadiazol-5-yl}-1H-1,2,3-triazol-5-yl)pyridine], 0.418 µM.
Under `Fc1ccccc1-c1noc(-c2nnn(-c3ccccc3F)c2C2CC2)n1` [Example 85, 5-[5-cyclopropyl-1-(2-fluorophenyl)-1H-1,2,3-triazol-4-yl]-3-(2-fluorophenyl)-1,2,4-oxadiazole] stands 0.451 µM.
The figure for `Fc1ccccc1-n1nnc(-c2nc(-c3cccc(Cn4cncn4)c3)no2)c1-c1ccccn1` [Example 86, 2-(1-(2-fluorophenyl)-4-{3-[3-(1H-1,2,4-triazol-1-ylmethyl)phenyl]-1,2,4-oxadiazol-5-yl}-1H-1,2,3-triazol-5-yl)pyridine] is 0.751 µM; for `Fc1ccccc1-n1nnc(-c2nc(-c3ccoc3)no2)c1-c1ccncc1` [Example 88, 4-{1-(2-fluorophenyl)-4-[3-(3-furyl)-1,2,4-oxadiazol-5-yl]-1H-1,2,3-triazol-5-yl}pyridine] it is 0.945 µM.
`Fc1ccccc1-n1nnc(-c2nc(-c3ccco3)no2)c1-c1ccncc1` [Example 89, 4-{1-(2-fluorophenyl)-4-[3-(2-furyl)-1,2,4-oxadiazol-5-yl]-1H-1,2,3-triazol-5-yl}pyridine] came in with an EC50 of 1.03 µM.
With `COCc1c(-c2nc(-c3cccc4[nH]ccc34)no2)nnn1-c1ccccc1F` [Example 90, 4-{5-[1-(2-fluorophenyl)-5-(methoxymethyl)-1H-1,2,3-triazol-4-yl]-1,2,4-oxadiazol-3-yl}-1H-indole], the EC50 was found to be 0.204 µM.
Under `CN(C)Cc1c(-c2nc(-c3cc(F)ccc3F)no2)nnn1-c1ccccc1F` [Example 91, 1-[4-[3-(2,5-difluorophenyl)-1,2,4-oxadiazol-5-yl]-1-(2-fluorophenyl)-1H-1,2,3-triazol-5-yl]-N,N-dimethylmethanamine] stands 0.443 µM.
The figure for `COCc1c(-c2nc(-c3cccc(S(N)(=O)=O)c3)no2)nnn1-c1ccccc1F` [Example 93, 3-{5-[1-(2-fluorophenyl)-5-(methoxymethyl)-1H-1,2,3-triazol-4-yl]-1,2,4-oxadiazol-3-yl}benzenesulfonamide] is 0.754 µM; for `CN(C)Cc1cccc(-c2noc(-c3nnn(-c4ccccc4F)c3-c3ccncc3)n2)c1` [Example 94, 1-(3-{5-[1-(2-fluorophenyl)-5-pyridin-4-yl-1H-1,2,3-triazol-4-yl]-1,2,4-oxadiazol-3-yl}phenyl)-N,N-dimethylmethanamine] it is 0.226 µM; for `Fc1ccccc1-n1nnc(-c2nc(-c3ccccc3)no2)c1-c1ccncc1` [Example 95, 4-[1-(2-fluorophenyl)-4-(3-phenyl-1,2,4-oxadiazol-5-yl)-1H-1,2,3-triazol-5-yl]pyridine] it is 0.013 µM.
Under `Fc1ccc(-c2noc(-c3nnn(-c4ccccc4F)c3-c3ccncc3)n2)cc1` [Example 96, 4-{1-(2-fluorophenyl)-4-[3-(4-fluorophenyl)-1,2,4-oxadiazol-5-yl]-1H-1,2,3-triazol-5-yl}pyridine] stands 0.138 µM; under `Fc1ccccc1-n1nnc(-c2nc(-c3ccc(CN4CCOCC4)cc3)no2)c1-c1ccncc1` [Example 98, 4-(4-{5-[1-(2-fluorophenyl)-5-pyridin-4-yl-1H-1,2,3-triazol-4-yl]-1,2,4-oxadiazol-3-yl}benzyl)morpholine], 0.439 µM; under `Fc1ccccc1-n1nnc(-c2nc(-c3c(F)cccc3F)no2)c1-c1ccncc1` [Example 99, 4-[4-[3-(2,6-difluorophenyl)-1,2,4-oxadiazol-5-yl]-1-(2-fluorophenyl)-1H-1,2,3-triazol-5-yl]pyridine], 0.106 µM.
The compound `Fc1ccccc1-n1nnc(-c2nc(-c3cccc(Br)c3)no2)c1-c1ccncc1` [Example 100, 4-[4-[3-(3-bromophenyl)-1,2,4-oxadiazol-5-yl]-1-(2-fluorophenyl)-1H-1,2,3-triazol-5-yl]pyridine] showed an EC50 of 0.018 µM.
Under `Fc1ccccc1-n1nnc(-c2nc(-c3cccc(C(F)(F)F)c3)no2)c1-c1ccncc1` [Example 103, 4-(1-(2-fluorophenyl)-4-{3-[3-(trifluoromethyl)phenyl]-1,2,4-oxadiazol-5-yl}-1H-1,2,3-triazol-5-yl)pyridine] stands 0.017 µM; under `Fc1ccccc1-n1nnc(-c2nc(-c3ccc4c(c3)CNCC4)no2)c1-c1ccncc1` [Example 105, 7-{5-[1-(2-fluorophenyl)-5-pyridin-4-yl-1H-1,2,3-triazol-4-yl]-1,2,4-oxadiazol-3-yl}-1,2,3,4-tetrahydroisoquinoline], 0.026 µM.
The figure for `O=C1Cc2cc(-c3noc(-c4nnn(-c5ccccc5F)c4-c4ccncc4)n3)ccc2N1` [Example 106, 5-{5-[1-(2-fluorophenyl)-5-pyridin-4-yl-1H-1,2,3-triazol-4-yl]-1,2,4-oxadiazol-3-yl}-1,3-dihydro-2H-indol-2-one] is 0.018 µM.
The compound `Cc1ccc(-c2noc(-c3nnn(-c4ccccc4F)c3-c3ccncc3)n2)cc1` [Example 107, 4-{1-(2-fluorophenyl)-4-[3-(4-methylphenyl)-1,2,4-oxadiazol-5-yl]-1H-1,2,3-triazol-5-yl}pyridine] yielded an EC50 of 0.049 µM.
Under `OCc1ccc(-c2noc(-c3nnn(-c4ccccc4F)c3-c3ccncc3)n2)cc1` [Example 108, (4-{5-[1-(2-fluorophenyl)-5-pyridin-4-yl-1H-1,2,3-triazol-4-yl]-1,2,4-oxadiazol-3-yl}phenyl)methanol] stands 0.021 µM; under `Fc1ccccc1-n1nnc(-c2nc(-c3ccc(C(F)(F)F)cc3)no2)c1-c1ccncc1` [Example 109, 4-(1-(2-fluorophenyl)-4-{3-[4-(trifluoromethyl)phenyl]-1,2,4-oxadiazol-5-yl}-1H-1,2,3-triazol-5-yl)pyridine], 0.402 µM; under `Fc1ccccc1-n1nnc(-c2nc(-c3ccc(C4OCCO4)cc3)no2)c1-c1ccncc1` [Example 110, 4-[4-{3-[4-(1,3-dioxolan-2-yl)phenyl]-1,2,4-oxadiazol-5-yl}-1-(2-fluorophenyl)-1H-1,2,3-triazol-5-yl]pyridine], 0.136 µM.
The figure for `OCc1cccc(-c2noc(-c3nnn(-c4ccccc4F)c3-c3ccncc3)n2)c1` [Example 111, (3-{5-[1-(2-fluorophenyl)-5-pyridin-4-yl-1H-1,2,3-triazol-4-yl]-1,2,4-oxadiazol-3-yl}phenyl)methanol] is 0.054 µM.
The figure for `Fc1ccc(F)c(-c2noc(-c3nnn(-c4ccccc4F)c3CNCC3CC3)n2)c1` [Example 112, 1-cyclopropyl-N-{[4-[3-(2,5-difluorophenyl)-1,2,4-oxadiazol-5-yl]-1-(2-fluorophenyl)-1H-1,2,3-triazol-5-yl]methyl}methanamine] is 0.806 µM.
The compound `NC(=O)C1CCN(Cc2ccc(-c3noc(-c4nnn(-c5ccccc5F)c4-c4ccncc4)n3)cc2)CC1` [Example 115, 11-(4-{5-[1-(2-fluorophenyl)-5-pyridin-4-yl-1H-1,2,3-triazol-4-yl]-1,2,4-oxadiazol-3-yl}benzyl)piperidine-4-carboxamide] gave an EC50 of 0.246 µM.
`Nc1c(Cl)cc(-c2noc(-c3nnn(-c4ccccc4F)c3-c3ccncc3)n2)cc1Cl` [Example 117, 2,6-dichloro-4-{5-[1-(2-fluorophenyl)-5-pyridin-4-yl-1H-1,2,3-triazol-4-yl]-1,2,4-oxadiazol-3-yl}aniline] yielded an EC50 of 0.009 µM.
